The supplement of paper PMC11208160

Assays:
[1] = recombinant barcode read abundance after kanamycin selection (control-corrected) (log10(CPM+1)); higher = more efficient recombination; sequences stand for … in AGTGCAGAGAAAATCGGCCAGTTTTCTCTGCCTGCAGTCCGCATGCCGT…AGATTTATGCAGCGGACTGCCTTTCTCCCAAAGTGATAAACCGGACAGTATCATGGACCGGTTTTCCCGGTAATCCGTATTTGCAAGGTTGGTTTCACT; site = the 11-nt target
Procedure: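 Pooled E. coli target-specificity screen for the IS621 bridge recombinase. Each library plasmid pairs an 11-nt target (CT core) with a bridge RNA whose target-binding loop (9-nt LTG + 4-nt RTG) is reprogrammed; the rest of the 177-nt WT IS621 bridge RNA scaffold is fixed. The plasmid is co-electroporated with a WT donor plasmid; recombinase is induced with 0.1 mM IPTG and recombinants are selected on kanamycin. Recombinant barcodes are sequenced, converted to CPM, averaged over two biological replicates and corrected by the unselected control CPM. Molecule = full bridge RNA written as DNA: LTG = specificity nt 1-9, RTG = reverse complement of specificity nt 8-11, in the WT scaffold.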

[2] = recombinant UMI read abundance after kanamycin selection (control-corrected) (log10(CPM+1)); higher = more efficient recombination; extreme values may be limits of the assay; sequences stand for … in AGTGCAGAGAAAATCGGCCAGTTTTCTCTGCCTGCAGTCCGCATGCCGTGGGACCCCTTGGGTTCTAACCTGTTGCCTAGATTTATGCAGCGGACTGCCTTTCTCCCAAAGTGATAAACCGG…AGGTTGGTTTCACT; site = the 11-nt donor
Method in brief: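 In a pooled Escherichia coli screen for the IS621 bridge recombinase, donor and donor-binding-loop pairs were each placed with a 12-nt UMI on a plasmid bearing a promoterless kanamycin gene. This library was co-electroporated with a target plasmid encoding a fixed target and T7-inducible recombinase, and cells were plated either on IPTG (0.07 mM) plus kanamycin or without selection, in two replicates each. Recombinant UMIs were PCR-amplified across the donor–target junction and sequenced, and counts were converted to CPM, averaged over replicates, scaled by control-derived factors and reported as log10(CPM+1).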
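For recombinant UMI read abundance after kanamycin selection (control-corrected) in this document: IS621 bridge recombinase in Escherichia coli cells against a fixed T5 target plasmid.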

Row | Sequence | recombinant barcode read abundance (log10) [1] | recombinant UMI read abundance (log10) [2]
1 | AAAAGTCCTTGGGTTCTAACCTGTTGCCT (site AAAAGTCCTAG) | 1.11 | 
2 | AAAAGTCCTTGGGTTCTAACCTGTTGCCT (site AAGAGTCCTAC) | 0.0517 | 
3 | AAAATGCCTTGGGTTCTAACCTGTTGCCT (site AAAATGCCTAG) | 0.359 | 
4 | AAAATGCCTTGGGTTCTAACCTGTTGCCT (site CAAATGTCTAG) | 0.0967 | 
5 | AAACGACCTTGGGTTCTAACCTGTTGCCT (site AAACGACCTAG) | 1.59 | 
6 | AAACGACCTTGGGTTCTAACCTGTTGCCT (site CAACGACCTAG) | 0.291 | 
7 | AAACGACCTTGGGTTCTAACCTGTTGCCT (site GAACGACCTAG) | 0.0625 | 
8 | AAACGACCTTGGGTTCTAACCTGTTGCCT (site TAACGACCTAG) | 0.801 | 
9 | AAAGCTACTTGGGTTCTAACCTGTTGCTA (site AAAGCTACTTA) | 0.86 | 
10 | AAAGCTACTTGGGTTCTAACCTGTTGCTA (site TGGTAGTCTAC) | 0.0812 | 
11 | AAAGTGTCTTGGGTTCTAACCTGTTGCCT (site AAAGTGTCTAG) | 2.97 | 
12 | AAAGTGTCTTGGGTTCTAACCTGTTGCCT (site AACGTGTCTAG) | 0.373 | 
13 | AAAGTGTCTTGGGTTCTAACCTGTTGCCT (site AAGGTGTCTAG) | 0.489 | 
14 | AAAGTGTCTTGGGTTCTAACCTGTTGCCT (site AATGTGTCTAG) | 0.65 | 
15 | AAATCGTCTTGGGTTCTAACCTGTTGCCT (site AAATCGTCTAG) | 0.817 | 
16 | AAATCGTCTTGGGTTCTAACCTGTTGCCT (site AACACGTCTAG) | 0.176 | 
17 | AACAGCTCTTGGGTTCTAACCTGTTGCCT (site AACAGCTCTAG) | 1.75 | 
18 | AACAGCTCTTGGGTTCTAACCTGTTGCCT (site AACAGTTCTAG) | 0.15 | 
19 | AACAGTGCTTGGGTTCTAACCTGTTGCCT (site AACAATGCTAG) | 0.248 | 
20 | AACAGTGCTTGGGTTCTAACCTGTTGCCT (site AACACTGCTAG) | 0.219 | 
21 | AACAGTGCTTGGGTTCTAACCTGTTGCCT (site AACAGTGCTAG) | 0.73 | 
22 | AACAGTGCTTGGGTTCTAACCTGTTGCCT (site AACATTGCTAG) | 0.0547 | 
23 | AACATGCCTTGGGTTCTAACCTGTTGCTT (site AACAAGCCTCA) | 0.233 | 
24 | AACATGCCTTGGGTTCTAACCTGTTGCTT (site AACATGCCTAA) | 0.478 | 

Row | Sequence | recombinant barcode read abundance (log10) [1] | recombinant UMI read abundance (log10) [2]
25 | AACCAGCCTTGGGTTCTAACCTGTTGCCT (site AACCAGCCTAG) | 1.33 | 
26 | AACCAGCCTTGGGTTCTAACCTGTTGCCT (site AACCATCCTAG) | 0 | 
27 | AACCAGTCTTGGGTTCTAACCTGTTGCGA (site AACCAGTCTTC) | 1.38 | 
28 | AACCAGTCTTGGGTTCTAACCTGTTGCGA (site AACTAGTCTTA) | 0.0824 | 
29 | AACGCTCCTTGGGTTCTAACCTGTTGCCT (site AACGCTCCTAG) | 0.102 | 
30 | AACGCTCCTTGGGTTCTAACCTGTTGCCT (site ACCGCTCCTAG) | 0 | 
31 | TTGGCTGCATGGACCGGTTTTCCCGGTAATCCGTATTTGTG (site TTAGCTGCTCA) |  | 0.0254
32 | TTGGCTGCATGGACCGGTTTTCCCGGTAATCCGTATTTGTG (site TTCGCTGCTCA) |  | 0.0142
33 | TTGGCTGCATGGACCGGTTTTCCCGGTAATCCGTATTTGTG (site TTGGCTGCTCA) |  | 0.00853
34 | TTGGCTGCATGGACCGGTTTTCCCGGTAATCCGTATTTGTG (site TTTGCTGCTCA) |  | 0.0121
35 | TTGGTAACATGGACCGGTTTTCCCGGTAATCCGTATTTGAG (site TTGGTAACTCT) |  | 0.734
36 | TTGGTACCATGGACCGGTTTTCCCGGTAATCCGTATTTGCA (site TTGGTACCTTG) |  | 0.00424
37 | TTGGTTCCATGGACCGGTTTTCCCGGTAATCCGTATTTGTG (site TTGGTTCCTCA) |  | 0.0354
38 | TTGTAAGCATGGACCGGTTTTCCCGGTAATCCGTATTTGCA (site TTGTAAGCTTG) |  | 1.17
39 | TTGTCGACATGGACCGGTTTTCCCGGTAATCCGTATTTGTC (site TTGTCGACTGA) |  | 0.433
40 | TTGTGCTCATGGACCGGTTTTCCCGGTAATCCGTATTTGGG (site TTGTGCTCTCC) |  | 0.0159
41 | TTTAGCCCATGGACCGGTTTTCCCGGTAATCCGTATTTGCT (site TTTAGCCCTAG) |  | 0
42 | TTTATAGCATGGACCGGTTTTCCCGGTAATCCGTATTTGCG (site TTTATAGCTCG) |  | 0.232
43 | TTTCACACATGGACCGGTTTTCCCGGTAATCCGTATTTGGA (site TTTCACACTTC) |  | 0.0104
44 | TTTCACGCATGGACCGGTTTTCCCGGTAATCCGTATTTGGT (site TTTCACGCTAC) |  | 0.0228
45 | TTTCCTCCATGGACCGGTTTTCCCGGTAATCCGTATTTGCG (site TTTCCTCCTCG) |  | 0.0281
46 | TTTCGAGCATGGACCGGTTTTCCCGGTAATCCGTATTTGCA (site ATTCGAGCTTG) |  | 0.411
47 | TTTCGAGCATGGACCGGTTTTCCCGGTAATCCGTATTTGCA (site CTTCGAGCTTG) |  | 0.13
48 | TTTCGAGCATGGACCGGTTTTCCCGGTAATCCGTATTTGCA (site GTTCGAGCTTG) |  | 0.969

Row | Sequence | recombinant barcode read abundance (log10) [1] | recombinant UMI read abundance (log10) [2]
49 | TTTCGAGCATGGACCGGTTTTCCCGGTAATCCGTATTTGCA (site TTTCGAGCTTG) |  | 1.31
50 | TTTCGCACATGGACCGGTTTTCCCGGTAATCCGTATTTGCG (site TTTCGCACTCG) |  | 0.00398
51 | TTTCGCACATGGACCGGTTTTCCCGGTAATCCGTATTTGTC (site TTTCGCACTGA) |  | 0.308
52 | TTTCGCCCATGGACCGGTTTTCCCGGTAATCCGTATTTGTG (site TTTCGCCCTCA) |  | 0.0225
53 | TTTGAATCATGGACCGGTTTTCCCGGTAATCCGTATTTGAC (site TTTGAATCTGT) |  | 0
54 | TTTGAGACATGGACCGGTTTTCCCGGTAATCCGTATTTGGT (site ATTGAGACTAC) |  | 0.0113
55 | TTTGAGACATGGACCGGTTTTCCCGGTAATCCGTATTTGGT (site CTTGAGACTAC) |  | 0.0146
56 | TTTGAGACATGGACCGGTTTTCCCGGTAATCCGTATTTGGT (site GTTGAGACTAC) |  | 0.0113
57 | TTTGAGACATGGACCGGTTTTCCCGGTAATCCGTATTTGGT (site TTTGAGACTAC) |  | 0.511
58 | TTTGCGGCATGGACCGGTTTTCCCGGTAATCCGTATTTGCC (site TTTGCGGCTAG) |  | 0.0224
59 | TTTGCGGCATGGACCGGTTTTCCCGGTAATCCGTATTTGCC (site TTTGCGGCTCG) |  | 0.0088
60 | TTTGCGGCATGGACCGGTTTTCCCGGTAATCCGTATTTGCC (site TTTGCGGCTGG) |  | 0
61 | TTTGCGGCATGGACCGGTTTTCCCGGTAATCCGTATTTGCC (site TTTGCGGCTTG) |  | 0.0109
62 | TTTGCGGCATGGACCGGTTTTCCCGGTAATCCGTATTTGCG (site TTTGCGGCTAG) |  | 0.00371
63 | TTTGCGGCATGGACCGGTTTTCCCGGTAATCCGTATTTGCG (site TTTGCGGCTCG) |  | 0.0191
64 | TTTGCGGCATGGACCGGTTTTCCCGGTAATCCGTATTTGCG (site TTTGCGGCTGG) |  | 0
65 | TTTGCGGCATGGACCGGTTTTCCCGGTAATCCGTATTTGCG (site TTTGCGGCTTG) |  | 0.0091
66 | TTTGCTGCATGGACCGGTTTTCCCGGTAATCCGTATTTGCT (site TTTGCAGCTAG) |  | 0
67 | TTTGCTGCATGGACCGGTTTTCCCGGTAATCCGTATTTGCT (site TTTGCCGCTAG) |  | 0.0567
68 | TTTGCTGCATGGACCGGTTTTCCCGGTAATCCGTATTTGCT (site TTTGCGGCTAG) |  | 0
69 | TTTGCTGCATGGACCGGTTTTCCCGGTAATCCGTATTTGCT (site TTTGCTGCTAG) |  | 0.00917
70 | TTTGTCACATGGACCGGTTTTCCCGGTAATCCGTATTTGGA (site TTTGTCACTTC) |  | 0.187
